Where “and” joins values, the source holds several entries; their conditions need not be identical. Equal values may be shown once. Where a name gives a salt, the structure may show the parent alone.
Columns and labels:
[1] = system: G06 patient-derived glioblastoma cells, intracranial; experiment: Survival in orthotopic glioblastoma mouse model, G06; type: in vivo; settings: athymic nude mice, oral daily from day 4, percent increase of median versus vehicle
Text: (§1) Patient-derived xenograft samples were used in this study as a more faithful representation of human glioblastoma compared to immortalized cell lines. The maintenance of patient-derived xenografts exclusively by serial passage in mice has been advocated as a means to faithfully preserve the genetic features of the original tumors. Tumor integrity is periodically confirmed by short tandem repeat assessment. These methods were used to obtain cell suspensions of G06 cells for use in vivo. Briefly, short-term cultured cells were injected into the flank of athymic nude mice (Nu/Nu: Envigo). Tumors grown in these mice were harvested and cultured to afford cell suspension for viability studies. Mice with tumors 1-1.5 cm^3 were euthanized using CO2. Tumors were swabbed with Betadine (Carefusion #29906-016) and excised with a sterile scalpel. The tumor sample was placed in a culture plate and broken up with a sterile syringe. […] The pellets were resuspended in Stem Cell Media to a concentration of […] as measured by a hemocytometer.
(§2) G06 or cultured GBM8 cells (3×10^5, 3 μL), were injected intracranially into anesthetized female athymic nude mice (Nu/Nu: Envigo). […] Animal counts and body weight were monitored daily. Survival improvement was measured as a percent increase of the median for drug treatment versus vehicle.

[2] = system: GBM8 cells, intracranial; experiment: Survival in orthotopic glioblastoma mouse model, GBM8; type: in vivo; settings: athymic nude mice, oral daily from day 4, percent increase of median versus vehicle
Text: as §1, §2

[3] = system: GBM8 human glioblastoma cells; experiment: GBM8 viability assay (Cell Titer Glo); type: cell-based; settings: 72 h, Table 1, 3 days incubation, luminescence
In short: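 Patient-derived GBM4 and GBM8 neurosphere cells, 4000 per well in EGF/bFGF/heparin-supplemented NeuroCult medium, were exposed to compound (added in 1% DMSO solution) for 3 days at 37° C. Growth was read by CellTiter-Glo luminescence versus DMSO wells, and IC50s came from 4-parameter fits of serial dilutions.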

[4] = system: Human GBM8 glioblastoma flank tumor; experiment: Tumor growth inhibition in mouse flank tumor model, GBM8; type: in vivo; settings: NSG mice; for Compound + Temozolomide + radiation (median TTE): combined with temozolomide and radiation; for Compound (median TTE): compound alone
Procedure: (§3) The animals were fed ad libitum water (reverse osmosis, 1 ppm Cl) and NIH 31 Modified and Irradiated Lab Diet® consisting of 18.0% crude protein. 5.0% crude fat, and 5.0% crude fiber. The mice were housed on irradiated Enrich-o'Cobs™ bedding in static microisolators on a 12-hour light cycle at 20-22° C. (68-72° F.) and 40-60% humidity.
(§4) Human GBM4 or GBM8 glioblastoma cell lines were maintained in Complete NeuroCult Proliferation Medium containing 20 ng/mL EGF, 10 ng/mL bFGF and 2 μg/mL Heparin. The cells were cultured in ultra low attachment T75 flask (Corning REF-3814) and the resulting neurospheres were dissociated every 4-6 days using the NeuroCult Chemical Dissociation kit (Stemcell Technologies Cat #05707). Cell cultures were maintained in tissue culture flasks in a humidified incubator at 37° C., in an atmosphere of 5% CO2 and 95% air. Cell samples were collected one passage prior to cell implant and preserved in freezing media.
(§5) Cells used for implantation were harvested during log phase growth and resuspended in cold PBS containing in 50% Matrigel™ (BD Biosciences). Tumor growth was initiated on Day 1 by subcutaneous injection of GBM4 cells into the right flank of each mouse with 1×10^7 tumor cells (0.1 mL cell suspension) and tumor growth was monitored in four groups (n=8) beginning on Day 12. Groups for treatment included group 1 (vehicle), group 2 (test Olig2 inhibitor), group 3 (treatment with temozolomide and radiation) and group 4 (test Olig2 inhibitor combined with temozolomide and radiation). The tumors were measured with a caliper in two dimensions to monitor size. Tumor size was calculated using the formula. Tumor Volume (mm^3)=w^2×½: where w=width and l=length, in mm, of a tumor. Tumor weight may be estimated with the assumption that 1 mg is equivalent to 1 mm^3 of tumor volume Tumors were measured with a caliper twice weekly for the duration of the study Temozolomide (Merck & Co., Lot No. L046487) was administered orally at doses of 5 mg/kg or 10 mg/Kg). Radiation was adminstered with a Faxitron model CP-160 X-ray system. Each animal was immobilized in a live restrainer. Therapy was administered for 1.3 min at 160 KV and 6.0 mA, providing a dose of 1 gray (Gy) for each animal.
The study endpoint was a tumor volume of 2000 mm^3 or Day 152, whichever came first. Each animal was euthanized for tumor progression (TP) when its tumor reached the volume endpoint. The time to endpoint (TTE) for each animal was calculated with the following equation: […]
The data set is comprised of the first observation that exceeded the study endpoint volume and the three consecutive observations that immediately preceded the attainment of the endpoint volume. […] In instances in which the log-transformed calculated TTE preceded the day prior to reaching endpoint or exceeded the day of reaching tumor volume endpoint, a linear interpolation was performed to approximate the TTE. Any animal determined to have died from treatment-related (TR) causes was assigned a TTE value equal to the day of death. […]
Treatment outcome was evaluated from tumor growth delay (TGD), which was defined as the increase in the median TTE for a treatment group compared to the control group: TGD=T−C, expressed in days, or as a percentage of the median TTE of the control group: TGD(%)=T−C/C×100 • T=median TTE for a treatment group, • C=median TTE for the control group.

[5] = system: Human GBM4 glioblastoma flank tumor; experiment: Tumor growth inhibition in mouse flank tumor model, GBM4; type: in vivo; settings: NSG mice
Procedure: as §3, §4
as §5, with “Tumor Volume (mm^3)=w^2×½: where w=width and l=length, in mm, of a tumor.” left out, “Radiation was adminstered with a Faxitron model CP-160 X-ray system. Each animal was immobilized in a live restrainer. Therapy was administered for 1.3 min at 160 KV and 6.0 mA, providing a dose of 1 gray (Gy) for each animal.” left out
The study endpoint was a tumor volume of 2000 mm^3 or Day 152, whichever came first. […] The time to endpoint (TTE) for each animal was calculated with the following equation: […]

[6] = system: GBM4 human glioblastoma cells; experiment: GBM4 viability assay (Cell Titer Glo); type: cell-based; settings: Table 3, GBM4 cells, read-out: GBM4 IC50 (Cytotoxicity)
Procedure: Cell culture medium was prepared from a NSA proliferation kit (Neurocult) and NeuroCult supplements (Stemcell Tech Cat. #05751) and treated with 20 μL of 10 μg/mL rh EGF, 10 μL of 10 μg/mL rh bFGF and 10 μL of 0.2% Heparin. In this medium, human glioblastoma cells were cultured in ultra-low attachment tissue culture flasks until 1×10^6 cells ml was achieved (GBM4 and GBM8 are distinct neurosphere cell cultures derived from these human patient tissues). GBM4 and GBM8 cells were dissociated and 10 mL of media containing 4000 human glioblastoma cells per 90 μL were transferred to an ultra-low binding 96-well plate and incubated at 37° C. overnight. On the following day, 10 μL of a 1% DMSO solution of test compound in assay medium was added to wells containing the cell suspension and the mixture incubated at 37° C. for 3 days. At this time, the plate was removed from the incubator and allowed to reach room temperature. After about 30 minutes, 50 μL of Cell Titer Glo solution was added to each well and the plate shaken for 1 minute at low speed. After 10 minutes luminescence was recorded using a Tecan Safire2 reader.
Reduction in luminescence compared to DMSO only control wells was used to determine the percentage inhibition of cell growth. IC50s were calculated using the % inhibition of luminescence for serial dilutions of compounds fitted to a 4-parameter fit within the Prism (San Diego) curve fitting program. Tables 1 (compounds 3-188) and 2 (compounds 190-212) show the GBM4 IC50 and GBM8 IC50 for compounds described herein.

[7] = Solubility of compound 174 in DI water; type: physicochemical; settings: thermodynamic from solid, 2 determinations, read-out: Estimated solubility
Procedure: Into a 1 dram vial was added a sample of compound 174. DI water was added until the solid was fully dissolved. Solubility was estimated from the amount of solid per mL of water added. Estimated solubility ˜30 mg/mL (2 determinations).

[8] = temozolomide orally plus radiation 1 Gy

SMILES: Cc1cc(N)nc(NC(=O)Nc2ccc(OC(F)(F)F)cc2)n1 [Compound 176, 1-(4-amino-6-methylpyrimidin-2-yl)-3-(4-(trifluoromethoxy)-phenyl)urea]
- G06: Estimated Median Survival Benefit (%) [1]: 46%
- GBM8: Estimated Median Survival Benefit (%) [2]: 72%
- IC50 [3]: < 0.5 µM
- Compound + Temozolomide + radiation (median TTE) [4]: 127.9 days
- Compound (median TTE) [4]: 56.4 days

SMILES: Cn1nnc2c(C(N)=O)ncn2c1=O [Temozolomide, reference compound]
- Temozolomide + radiation (median TTE) [5, 8]: 116.3 days
- Temozolomide + radiation (median TTE) [4, 8]: 86.2 days and 78 days

SMILES: Cc1cc(NCCCN(C)C)nc(NC(=O)Nc2ccc(Cl)c(Cl)c2)n1 [Compound 174, 1-(3,4-dichlorophenyl)-3-(4-((3-(dimethylamino)propyl)amino)-6-methylpyrimidin-2-yl)urea dimethanesulfonic acid salt]
- G06: Estimated Median Survival Benefit (%) [1]: 54%
- Compound + Temozolomide + radiation (median TTE) ([5]; combined with temozolomide and radiation): 152.0 days
- Compound (median TTE) ([5]; compound alone, endpoint 2000 mm^3 or Day 152): 73.0 days
- GBM8: Estimated Median Survival Benefit (%) [2]: 48%
- IC50 [6]: 0.24 µM
- solubility [7]: ~30 mg/mL
- IC50 [3]: < 0.5 µM
- Compound + Temozolomide + radiation (median TTE) [4]: >140.0 days
- Compound (median TTE) [4]: 61.3 days

Source: US12145913B2, “Inhibition of Olig2 activity” (Curtana Pharmaceuticals, Inc., priority 2016, dated 2024)
